Here are results for four compounds from patent publication US12358847B2, “Liquid formulations of urease inhibitors for fertilizers” (Soilgenic Technologies, LLC, priority 2012, dated 2025).

For data set [1] the following is noted: Maximum Allowable Dosage Level per day (California Proposition 65); cited from earlier work.
Data set [2] can be described thus: Dynamic viscosity of protic solvents with DMSO vs. NMP co-solvent (Brookfield viscometer). It counts as physicochemical. The following applies: 21° C.; in propylene glycol, glycerin, MIPA. An excerpt: Dynamic viscosity measurements were collected for propylene glycol, glycerin, and a representative alkanolamine (monoisopropanolamine, MIPA) with increasing levels of DMSO and NMP. A Brookfield LVDV-E digital rotational viscometer with LVDV-E spindle set (Brookfield Engineering Labs, Inc., Middleboro, Mass.) was employed for this work and was calibrated using Cannon […] general purpose, synthetic base oil viscosity calibration standard solution (Cannon Instrument Company, State College, PA). The sampling was conducted at 21° C.

The conditions of data set [3]: in vivo; cited from earlier work.
For data set [4] the following is noted: in vivo; cited from earlier work. The source holds these as a separate data set.
A short description of data set [5]: Accelerated chemical stability of NBPT solutions at 50 °C, HPLC. The following applies: 45 days at 50±1° C.
For data set [6] the following is noted: 25° C.; cited from earlier work.

Consider `C[S+](C)[O-]` [Dimethyl sulfoxide, dimethyl sulfoxide], for which the “Inhalation toxicity (MADL)” value in data set [1] was “None established”. Also, the “reducing the viscosity of viscous formulations, DMSO vs. NMP” value in data set [2] was “virtually no difference”. The “Oral LD-50” value in data set [3] was 14,500-28,300. For the same compound, the “Dermal LD-50” value in data set [4] is 40,000.

`CN1CCCC1=O` [N-methyl pyrrolidone, reference compound]: the “Inhalation toxicity (MADL)” value in data set [1] was 3200 µg/day. Besides, the “Oral LD-50” value in data set [3] is 3,914. Further, in data set [4], the “Dermal LD-50” value is 8,000.

Take `CCCCNP(N)(N)=S` [NBPT, N-(n-butyl) thiophosphoric triamide]: the “NBPT deterioration at elevated temperature” value in data set [5] (solution of example 4: 50% PG, 25% DMSO, 25% NBPT) was “did not have significant deterioration”; in data set [5] (solution of example 6: 35% PG, 40% DMSO, 25% NBPT), “did not have significant deterioration”; in data set [5] (solution of example 8: 20% PG, 40% DMSO, 40% NBPT), “did not have significant deterioration”; in data set [5] (solution of example 10: 48.5% glycerine, 1.5% methanol, 25% DMSO, 25% NBPT) it was “did not have significant deterioration”; in data set [5] (solution of example 12: 33.5% glycerine, 1.5% methanol, 25% DMSO, 40% NBPT), “did not have significant deterioration”.

In the case of `CC(O)CO` (stereo not shown) [propylene glycol], the dynamic viscosity in data set [6] is 48.8 centipoise.
